Test in all cases: DTP human tumour cell line panel, 48 h
Experiment [1] has as its system CCRF-CEM leukemia.
Experiment [2] concerns HL-60(TB) leukemia.
For experiment [3], the system named is MALME-3M melanoma.
Experiment [4] has as its system SN12C renal.
For experiment [5], the system named is A498 renal.
For experiment [6], the system named is U251 CNS.
In experiment [7] the test system is LOX IMVI melanoma.
Experiment [8] has as its system SK-MEL-5 melanoma.
Experiment [9] deals with HCC-2998 colon.

Molecules are shown by their SMILES.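 Growth conditions: 96-well plates. Treatment: test compound, 48 hours, 5 concentrations. Analysis: linear interpolation between bracketing concentrations; unreached endpoints set to highest concentration. TGI: total growth inhibition.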 Some results are limits rather than exact numbers.

The TGI is the concentration at which net growth stops. The low end stands for greater sensitivity of the cells, the high end for lower sensitivity of the cells.

As for `S=P(N1CCCC1)(N1CC1)N1CC1`, the TGI in experiment [1], in [2], in experiment [3], in experiment [4], in experiment [5] and in experiment [6] was above 100 µM throughout. Also, the total growth inhibition concentration (TGI) in experiment [7], in experiment [8] and in [9] was above 100 µM in each case.

With `CC(/C=C/NNC1=NC(c2ccccc2)C(c2ccccc2)=NN1)Sc1ccccc1N` (stereo unspecified), the TGI stood at 6.45 µM in experiment [2]; 20.9 µM in experiment [3]; 18.2 µM in experiment [4]; 26.6 µM in experiment [5]; 8.39 µM in experiment [6]; 11.4 µM in experiment [7]. For the same molecule, the TGI in [8] was found to be 23.6 µM; in experiment [9] it was 29.9 µM.

Take `N#Cc1c(C[n+]2ccccc2)c2ccccc2oc1=O`: the concentration for total growth inhibition (TGI) in experiment [1], in [3], in [4], in [6], in experiment [7] and in experiment [8] was above 100 µM throughout. The molecule further came in with a TGI in [9] above 100 µM.

On to `Nc1ccc(C(=O)CC2(O)C(=O)Nc3c(Cl)cc(Cl)cc32)cc1` (stereo unspecified), for which the TGI in experiment [1] is above 100 µM; in [2] it was 78.5 µM; in experiment [3], above 100 µM; in experiment [4], above 100 µM; in experiment [5], above 100 µM; in experiment [6] it was 95.7 µM. For the same molecule, the TGI in experiment [7] and in [9] was above 100 µM in each case.

`COc1ccccc1NC(=O)C1=C(C)NC(C)=C(C(=O)Nc2ccccc2OC)C1c1ccc(N(C)C)cc1`: the concentration for total growth inhibition (TGI) in [1] was 52.4 µM; in experiment [2] it was 40.7 µM; in [3], above 100 µM; in [4], above 100 µM; in experiment [5], above 100 µM; in [6] it was above 100 µM. The TGI in experiment [7] is 42.2 µM; in experiment [8] it was 96.7 µM; in experiment [9], 38.2 µM.

As to `COc1cc(C2c3cc4c(cc3[C@@H](N(C)C)[C@H]3COC(=O)C23)OCO4)cc(OC)c1O` (stereo partly specified), the TGI in experiment [1] was above 100 µM; in [2], above 100 µM; in experiment [3], above 100 µM; in experiment [4], above 100 µM; in [5] it was 56 µM; in experiment [6] it was above 100 µM. The TGI was above 100 µM in experiment [7], 86.5 µM in experiment [8] and above 100 µM in [9].

`COC(=O)C1Cc2c([nH]c3ccccc23)C(c2ccccc2O)N1Cc1ccccc1` (stereo unspecified): the TGI in experiment [1] was above 46.4 µM; in experiment [2], above 46.4 µM; in [3], above 31.6 µM; in experiment [4], above 46.4 µM; in experiment [5], 37.8 µM; in experiment [6], 39.5 µM. Also, the total growth inhibition concentration (TGI) is above 46.4 µM in [7], above 46.4 µM in experiment [8] and above 31.6 µM in experiment [9].

For the molecule `Cc1c(Cl)cccc1NC(=O)/C(Cl)=C(\Cl)C(=O)O`, the TGI in [1] was 44.5 µM; in [3] it was 32.2 µM; in experiment [4], 31.2 µM; in experiment [5], above 100 µM; in experiment [6], 32.7 µM; in [7], 32.7 µM. The concentration for total growth inhibition (TGI) in experiment [8] was determined as 38.2 µM; in experiment [9], 35.5 µM.

As for `O=c1cc(-c2ccccn2)[nH]c2cc(F)ccc12`, the TGI in [2], in [3], in experiment [4], in [7], in experiment [8] and in experiment [9] was above 100 µM in each case.

For the molecule `COc1c(Sc2ccccc2)cc(Sc2ccccc2)c2cccnc12`, the total growth inhibition concentration (TGI) in experiment [1] turned out to be 54.5 µM; in experiment [3], 44.1 µM; in experiment [4], 97.6 µM; in experiment [5], 82.3 µM; in [6], 70.7 µM; in experiment [7] it was 42.7 µM. The TGI was 30.5 µM in experiment [8] and above 100 µM in [9].

For the molecule `CN1C(=O)C2C=CC1C1CCC2N(C)C1=O` (stereo unspecified), the TGI in experiment [1], in experiment [2], in [3], in [4], in experiment [5] and in experiment [6] was above 100 µM each time. The TGI in experiment [7], in experiment [8] and in [9] was above 100 µM each time.

As for `COC(=O)c1ccc(C(=O)OC)c2nc3cc(C)ccc3nc12`, the TGI in experiment [1], in experiment [2], in experiment [3], in [4], in [5] and in experiment [6] was above 100 µM throughout. Also, the TGI in [7], in [8] and in experiment [9] was above 100 µM throughout.

For `Cc1c(C(=O)CC(=O)C(=O)Nc2cc(Cl)ccc2Cl)[n+](=O)c2ccccc2n1[O-]`, the TGI in experiment [1] is above 100 µM; in [3] it was above 100 µM; in experiment [4], above 100 µM; in experiment [5], above 100 µM; in experiment [6], above 100 µM; in experiment [7], 93.5 µM. Further, the TGI in experiment [8] and in [9] was above 100 µM throughout.

On to `COC(=O)[C@H]1N[C@@H](C(=O)OC)C23CCC[C@H]2CC[C@]1(C(OC)OC)C3`, for which the TGI in experiment [1], in experiment [2], in experiment [3], in experiment [4], in experiment [5] and in experiment [6] was above 100 µM each time. In addition, the TGI in experiment [7], in experiment [8] and in experiment [9] was above 100 µM in each case.

In the case of `CC1(O)CCC2(C)C(=O)C1(C)CCC21OCCO1` (stereo unspecified), the TGI in experiment [1], in experiment [2], in experiment [3], in [4], in experiment [6] and in [8] was above 100 µM in each case. The TGI in experiment [9] is above 100 µM.

In the case of `NC(=O)c1csc(C2CCC(CO)O2)n1` (stereo unspecified), the total growth inhibition concentration (TGI) in experiment [1], in experiment [2], in experiment [3], in [4], in experiment [5] and in experiment [6] was above 100 µM in each case. For the same molecule, the TGI in experiment [7] and in [9] was above 100 µM throughout.

These data come from PubChem BioAssay (NCI).
